The results in this text go back to the supplement of paper PMC11424490.

For test [1], the system named is SW837. As to the kind of experiment: combination cScore with sotorasib (Bliss gap around IC50) (%PoC); higher = stronger additive effect. The essentials: (§1)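 NCI-H2122, NCI-H358 and SW837 cells were plated in 384-well plates at 500 or 800 cells per well, treated with concentration matrices after 24 h, and grown for 72 h (SW837 for 144 h). Luminescence from CellTiter-Glo was expressed as percent of control relative to vehicle wells and fitted with four-parameter curves. The score is the mean Bliss-independence gap, expected minus measured viability, across a field around both monotherapy IC50 values, or across the top concentrations where no IC50 was reached.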

In test [2] the test system is NCI-H2122. The test is described as above. The essentials: as §1

Counter-ions that a name gives are not always drawn.

On to `On1ncc2cc(CCc3nn[nH]n3)ccc21` + C=CC(=O)N1CCN(c2nc(=O)n(-c3c(C)ccnc3C(C)C)c3nc(-c4c(O)cccc4F)c(F)cc23)[C@@H](C)C1 [sotorasib], for which the “combination cScore with sotorasib” value was -12.1 in test [1] and -2.12 in test [2].
The matching figures for `Cc1ccc(NC(=O)c2ccc(CN3CCN(C)CC3)cc2)cc1Nc1nc(-c2cccnc2)cs1` [Masitinib] + C=CC(=O)N1CCN(c2nc(=O)n(-c3c(C)ccnc3C(C)C)c3nc(-c4c(O)cccc4F)c(F)cc23)[C@@H](C)C1 [sotorasib]: -1.47 and 17.9.
For `CS(=O)(=O)c1ccc(-c2cnc(N)c(C(=O)Nc3ccccc3)n2)cc1` [VE-821] + C=CC(=O)N1CCN(c2nc(=O)n(-c3c(C)ccnc3C(C)C)c3nc(-c4c(O)cccc4F)c(F)cc23)[C@@H](C)C1 [sotorasib] the same measures were 6.3 and 6.24.
Turning to `COc1cc2cc(c1Cl)N(C)C(=O)C[C@H](OC(=O)C(C)C)[C@]1(C)O[C@@H]1[C@H](C)[C@@H]1C[C@@](O)(NC(=O)O1)[C@H](OC)/C=C/C=C(\C)C2` [Ansamitocin P3] + C=CC(=O)N1CCN(c2nc(=O)n(-c3c(C)ccnc3C(C)C)c3nc(-c4c(O)cccc4F)c(F)cc23)[C@@H](C)C1 [sotorasib], the “combination cScore with sotorasib” value in test [1] was -0.32; in test [2] it was 5.88.
The matching figures for `Nc1nc2[nH]cc(CCc3ccc(C(=O)N[C@@H](CCC(=O)O)C(=O)O)cc3)c2c(=O)[nH]1` [Pemetrexed] + C=CC(=O)N1CCN(c2nc(=O)n(-c3c(C)ccnc3C(C)C)c3nc(-c4c(O)cccc4F)c(F)cc23)[C@@H](C)C1 [sotorasib]: 16.4 and 1.36.
Consider `Nc1ncn([C@@H]2O[C@H](CO)[C@@H](O)[C@H]2O)c(=O)n1` [Azacitidine] + C=CC(=O)N1CCN(c2nc(=O)n(-c3c(C)ccnc3C(C)C)c3nc(-c4c(O)cccc4F)c(F)cc23)[C@@H](C)C1 [sotorasib], for which the “combination cScore with sotorasib” value amounted to 18.6 in test [1] and 3.93 in test [2].
Take `CC1=C(/C=C/C(C)=C/C=C/C(C)=C/C(=O)O)C(C)(C)CCC1` [Tretinoin] + C=CC(=O)N1CCN(c2nc(=O)n(-c3c(C)ccnc3C(C)C)c3nc(-c4c(O)cccc4F)c(F)cc23)[C@@H](C)C1 [sotorasib]: the “combination cScore with sotorasib” value in test [1] came out at 15.7; in test [2], 10.5.
The matching figures for `Cc1cn(-c2cc(NC(=O)c3ccc(C)c(Nc4nccc(-c5cccnc5)n4)c3)cc(C(F)(F)F)c2)cn1` [Nilotinib] + C=CC(=O)N1CCN(c2nc(=O)n(-c3c(C)ccnc3C(C)C)c3nc(-c4c(O)cccc4F)c(F)cc23)[C@@H](C)C1 [sotorasib]: 14.3 and 6.86.
The matching figures for `CNC(=O)c1cc(Oc2ccc(NC(=O)Nc3ccc(Cl)c(C(F)(F)F)c3)c(F)c2)ccn1` [Regorafenib] + C=CC(=O)N1CCN(c2nc(=O)n(-c3c(C)ccnc3C(C)C)c3nc(-c4c(O)cccc4F)c(F)cc23)[C@@H](C)C1 [sotorasib]: -5.66 and 7.32.
Take `Cc1ncc([N+](=O)[O-])n1CCOC(=O)NC(Nc1ncccn1)C(Cl)(Cl)Cl` (centres undefined) [Apcin] + C=CC(=O)N1CCN(c2nc(=O)n(-c3c(C)ccnc3C(C)C)c3nc(-c4c(O)cccc4F)c(F)cc23)[C@@H](C)C1 [sotorasib]: the “combination cScore with sotorasib” value is 4.14 in test [1] and -0.45 in test [2].
As for `Cc1ccc(NC(=O)c2ccnc(C(F)(F)F)c2)cc1-c1cc(OCCO)nc(N2CCOCC2)c1` [LXH-254] + C=CC(=O)N1CCN(c2nc(=O)n(-c3c(C)ccnc3C(C)C)c3nc(-c4c(O)cccc4F)c(F)cc23)[C@@H](C)C1 [sotorasib], the results for the “combination cScore with sotorasib” value in test [1] and in test [2] were 5.53 and 7.11, respectively.
For `CC(=O)[C@]1(O)Cc2c(O)c3c(c(O)c2[C@@H](O[C@H]2C[C@H](N)[C@H](O)[C@H](C)O2)C1)C(=O)c1ccccc1C3=O` [Idarubicin] + C=CC(=O)N1CCN(c2nc(=O)n(-c3c(C)ccnc3C(C)C)c3nc(-c4c(O)cccc4F)c(F)cc23)[C@@H](C)C1 [sotorasib] the same measures were 5.83 and 8.08.
`CCCS(=O)(=O)Nc1ccc(F)c(C(=O)c2c[nH]c3ncc(Cl)cc23)c1F` [PLX4720] + C=CC(=O)N1CCN(c2nc(=O)n(-c3c(C)ccnc3C(C)C)c3nc(-c4c(O)cccc4F)c(F)cc23)[C@@H](C)C1 [sotorasib]: the “combination cScore with sotorasib” value in test [1] came to 2.2; in test [2], 17.4.
Take `COc1ccccc1-c1cc(Nc2cccc(CS(N)(=O)=O)c2)ncn1` [LDC-067] + C=CC(=O)N1CCN(c2nc(=O)n(-c3c(C)ccnc3C(C)C)c3nc(-c4c(O)cccc4F)c(F)cc23)[C@@H](C)C1 [sotorasib]: the results for the “combination cScore with sotorasib” value in test [1] and in test [2] were 11.1 and 5.31, respectively.
In the case of `Cc1cn(CCN2CCN(c3ccccc3-c3cc(C#N)cc(C(=O)NCCCN4CCCC4)c3)CC2)c2ccccc12` [LLY-507] + C=CC(=O)N1CCN(c2nc(=O)n(-c3c(C)ccnc3C(C)C)c3nc(-c4c(O)cccc4F)c(F)cc23)[C@@H](C)C1 [sotorasib], the “combination cScore with sotorasib” value in test [1] came out at 9.15; in test [2] it was 0.73.
Consider `NC(=O)c1cnc(N[C@@H]2CCCC[C@@H]2N)nc1Nc1cccc(-n2nccn2)c1` + C=CC(=O)N1CCN(c2nc(=O)n(-c3c(C)ccnc3C(C)C)c3nc(-c4c(O)cccc4F)c(F)cc23)[C@@H](C)C1 [sotorasib], for which the “combination cScore with sotorasib” value in test [1] is -0.31; in test [2] it was 7.42.
For `COc1cc2c(NC3CCN(C(C)C)CC3)nc(C3CCCCC3)nc2cc1OCCCN1CCCC1` [UNC0638] + C=CC(=O)N1CCN(c2nc(=O)n(-c3c(C)ccnc3C(C)C)c3nc(-c4c(O)cccc4F)c(F)cc23)[C@@H](C)C1 [sotorasib] the same measures were 9.19 and -0.46.
The matching figures for `CN(C)C(=N)NC(=N)N` [Metformin] + C=CC(=O)N1CCN(c2nc(=O)n(-c3c(C)ccnc3C(C)C)c3nc(-c4c(O)cccc4F)c(F)cc23)[C@@H](C)C1 [sotorasib]: -0.945 and 5.93.
For `CO[C@@]12[C@H](COC(N)=O)C3=C(C(=O)C(C)=C(N)C3=O)N1C[C@@H]1N[C@@H]12` [Mitomycin C] + C=CC(=O)N1CCN(c2nc(=O)n(-c3c(C)ccnc3C(C)C)c3nc(-c4c(O)cccc4F)c(F)cc23)[C@@H](C)C1 [sotorasib] the same measures were 4.84 and 11.
Regarding `COc1cc2c(Oc3ccc4[nH]c(C)cc4c3F)ncnc2cc1OCCCN1CCCC1` [Cediranib] + C=CC(=O)N1CCN(c2nc(=O)n(-c3c(C)ccnc3C(C)C)c3nc(-c4c(O)cccc4F)c(F)cc23)[C@@H](C)C1 [sotorasib], the “combination cScore with sotorasib” value in test [1] came to 1.55; in test [2], 0.01.
Turning to `C[C@@H]1CCN(C(=O)CC#N)C[C@@H]1N(C)c1ncnc2[nH]ccc12` [Tofacitinib citrate] + C=CC(=O)N1CCN(c2nc(=O)n(-c3c(C)ccnc3C(C)C)c3nc(-c4c(O)cccc4F)c(F)cc23)[C@@H](C)C1 [sotorasib], the entries for the “combination cScore with sotorasib” value in test [1] and in test [2] were 2.98 and 1.35, respectively.
Turning to `NC(=O)Nc1cc(-c2cccc(F)c2)sc1C(=O)N[C@H]1CCCNC1` [AZD-7762] + C=CC(=O)N1CCN(c2nc(=O)n(-c3c(C)ccnc3C(C)C)c3nc(-c4c(O)cccc4F)c(F)cc23)[C@@H](C)C1 [sotorasib], the figures for the “combination cScore with sotorasib” value in test [1] and in test [2] were 6.36 and 2.45, respectively.
As to `O=[N+]([O-])c1ccc(NCCNc2ncc(-c3ncc[nH]3)c(-c3ccc(Cl)cc3Cl)n2)nc1` + C=CC(=O)N1CCN(c2nc(=O)n(-c3c(C)ccnc3C(C)C)c3nc(-c4c(O)cccc4F)c(F)cc23)[C@@H](C)C1 [sotorasib], the “combination cScore with sotorasib” value in test [1] is 3.71; in test [2], -9.14.
The matching figures for `O=C(O)C(=O)O.[NH-][C@@H]1CCCC[C@H]1[NH-].[Pt+2]` [Oxaliplatin] + C=CC(=O)N1CCN(c2nc(=O)n(-c3c(C)ccnc3C(C)C)c3nc(-c4c(O)cccc4F)c(F)cc23)[C@@H](C)C1 [sotorasib]: 3.16 and 13.8.
For `CC(=O)O[C@H]1C(=O)[C@@]2(C)[C@H]([C@H](OC(=O)c3ccccc3)[C@]3(O)C[C@H](OC(=O)[C@H](O)[C@@H](NC(=O)c4ccccc4)c4ccccc4)C(C)=C1C3(C)C)[C@]1(OC(C)=O)CO[C@@H]1C[C@@H]2O` [Paclitaxel] + C=CC(=O)N1CCN(c2nc(=O)n(-c3c(C)ccnc3C(C)C)c3nc(-c4c(O)cccc4F)c(F)cc23)[C@@H](C)C1 [sotorasib], the “combination cScore with sotorasib” value is 3.37 in test [1] and 9.86 in test [2].
As to `CCc1cnn2c(NCc3ccc[n+]([O-])c3)cc(N3CCCC[C@H]3CCO)nc12` + C=CC(=O)N1CCN(c2nc(=O)n(-c3c(C)ccnc3C(C)C)c3nc(-c4c(O)cccc4F)c(F)cc23)[C@@H](C)C1 [sotorasib], the “combination cScore with sotorasib” value in test [1] amounted to 2.65; in test [2] it was 7.04.
The matching figures for `CC(O)(CS(=O)(=O)c1ccc(F)cc1)C(=O)Nc1ccc(C#N)c(C(F)(F)F)c1` (centres undefined) [Bicalutamide] + C=CC(=O)N1CCN(c2nc(=O)n(-c3c(C)ccnc3C(C)C)c3nc(-c4c(O)cccc4F)c(F)cc23)[C@@H](C)C1 [sotorasib]: -1.56 and 3.68.
